According to patent publication US7022648B2, “Plant seeds treated with N,N′-substituted ureas” (Stoller Enterprises, Inc., priority 1996, dated 2006):
Where “and” joins values, the source holds several entries; their conditions need not be identical. Identical values can stand only once.

Assays:
Type in all cases: in vivo
[1] = test system: Corn; assay: Greenhouse pot test, seed treatment 0.01 M diformylurea; conditions: seed treated, 24 h soak, 30 days
Method: (§1) Based upon the foregoing preliminary work, additional experiments to investigate the effect of diformylurea on other plant species was undertaken. These experiments were also designed to compare the effect of treating seeds as described above with foliar treatment. Wheat, corn and peanuts were selected for the next phase of this work. Diformylurea was prepared by reacting formic acid and urea at a molar ratio of 2:1 as described above. An aqueous solution containing diformylurea at a concentration of 0.01 M was prepared. For the seed treatment portion of the experiments, the seeds to be treated were soaked in the foregoing solution for about 24 hours before planting. The control seeds were again soaked in water for the same time. Both control and treated seeds were planted in 1 gallon greenhouse pots. Five seeds were planted in each pot. Each pot was thinned to two plants after germination. For the foliar treatment portion of the experiment, plants grown from untreated seeds were sprayed with a solution containing 0.01 M. diformylurea at the three leaf stage. All plants were watered and fertilized as required. Thirty days after planting, the plants were harvested and the roots and shoots examined. The mass of both the roots and shoots and the total mass of the plant in each pot were determined.

[2] = test system: Peanuts; assay: as above; conditions: seed treated, 24 h soak, 30 days
Method: as §1

[3] = test system: Wheat; assay: as above; conditions: seed treated, 24 h soak, 30 days
Method: as §1

[4] = test system: Corn; assay: Greenhouse pot test, effect of diformylurea concentration applied to seeds; conditions: seed treated, 24 h soak, 30 days; for Roots (gm), Average / Shoots (gm), Average / Total (gm), Average: average of samples; for Roots (gm) / Shoots (gm) / Total (gm): single sample (pot)
Method: (§2) Additional experiments were designed to study further the effect of the concentration of diformylurea applied to the seeds of several other crops. These experiments were conducted using cotton, rice, corn and soybeans. These experiments were similar to the preliminary experiments described above. The concentrate described above, containing both diformylurea and formate, was used to prepare solutions containing low, medium and high concentrations of diformylurea having, respectively, 0.001 M, 0.01 M and 0.05 M diformylurea. These solutions were used to treat the seeds of cotton, rice, corn and soybeans. Seeds of each of these crops were soaked in water or the prepared aqueous solutions of diformylurea for 24 hours before planting. Five seeds were planted in each of six, 1 gallon greenhouse pots. Pots were thinned to two plants after germination and the plants watered and fertilized as needed for 30 days. Thereafter, the plants were harvested and the mass of the roots, shoots and total mass determined.

[5] = test system: Cotton; assay: as above; conditions: seed treated, 24 h soak, 30 days; for Roots (gm), Average / Shoots (gm), Average / Total (gm), Average: average of samples
Method: as §2

[6] = test system: Rice; assay: as above; conditions: seed treated, 24 h soak, 30 days; for Roots (gm), Average / Shoots (gm), Average / Total (gm), Average: average of samples
Method: as §2

[7] = test system: Soybean; assay: as above; conditions: seed treated, 24 h soak, 30 days; for Roots (gm), Average / Shoots (gm), Average / Total (gm), Average: average of samples
Method: as §2

## O=CNC(=O)NC=O [diformylurea, N,N′-diformylurea]
[1]
  Percent Change v. Control, Roots: 30%
  Percent Change v. Control, Shoots: 16%
  Percent Change v. Control, Total: 24%
  Root/Shoot Ratio: 1.80
[1]; average of samples
  Roots (gm), Average: 58.92 gm
  Shoots (gm), Average: 32.73 gm
  Total (gm), Average: 91.65 gm
[2]
  Percent Change v. Control, Roots: 17%
  Percent Change v. Control, Shoots: 31%
  Percent Change v. Control, Total: 24%
  Root/Shoot Ratio: 0.98
[2]; average of samples
  Roots (gm), Average: 19.93 gm
  Shoots (gm), Average: 20.30 gm
  Total (gm), Average: 40.23 gm
[2]; single sample (pot)
  Roots (gm): 20.11 gm and 22.04 gm and 21.60 gm and 16.74 gm and 16.46 gm and 22.65 gm
  Shoots (gm): 20.46 gm and 22.34 gm and 19.03 gm and 17.77 gm and 20.20 gm and 22.00 gm
  Total (gm): 40.57 gm and 44.38 gm and 40.63 gm and 34.51 gm and 36.66 gm and 44.65 gm
[3]
  Percent Change v. Control, Roots: 117%
  Percent Change v. Control, Shoots: 266%
  Percent Change v. Control, Total: 135%
  Root/Shoot Ratio: 4.39
[3]; average of samples
  Roots (gm), Average: 45.40 gm
  Shoots (gm), Average: 10.35 gm
  Total (gm), Average: 55.74 gm
[4]; 0.001 M
  Percent Change v. Control, Roots: 2%
  Percent Change v. Control, Shoots: 5%
  Percent Change v. Control, Total: 3%
  Root/Shoot Ratio: 1.04
  Roots (gm), Average: 19.65 gm
  Shoots (gm), Average: 18.85 gm
  Total (gm), Average: 38.50 gm
  Roots (gm): 18.90 gm and 17.20 gm and 27.00 gm and 19.10 gm and 18.10 gm and 17.60 gm
  Shoots (gm): 21.10 gm and 14.00 gm and 17.60 gm and 22.00 gm and 18.90 gm and 19.50 gm
  Total (gm): 40.00 gm and 31.20 gm and 44.60 gm and 41.10 gm and 37.00 gm and 37.10 gm
[4]; 0.01 M
  Percent Change v. Control, Roots: 9%
  Percent Change v. Control, Shoots: 7%
  Percent Change v. Control, Total: 8%
  Root/Shoot Ratio: 1.09
  Roots (gm), Average: 20.92 gm
  Shoots (gm), Average: 19.17 gm
  Total (gm), Average: 40.09 gm
  Roots (gm): 16.20 gm and 25.10 gm and 24.10 gm and 20.00 gm and 15.30 gm and 24.80 gm
  Shoots (gm): 18.60 gm and 22.10 gm and 23.00 gm and 16.60 gm and 15.50 gm and 19.70 gm
  Total (gm): 34.80 gm and 47.20 gm and 47.10 gm and 36.60 gm and 30.80 gm and 44.50 gm
[4]; 0.05 M
  Percent Change v. Control, Roots: 0%
  Percent Change v. Control, Shoots: −2%
  Percent Change v. Control, Total: −1%
  Root/Shoot Ratio: 1.09
  Roots (gm), Average: 19.20 gm
  Shoots (gm), Average: 17.62 gm
  Total (gm), Average: 36.82 gm
  Roots (gm): 17.90 gm and 20.40 gm and 17.80 gm and 21.20 gm and 18.70 gm
  Shoots (gm): 17.40 gm and 20.60 gm and 15.90 gm and 18.40 gm and 15.80 gm
  Total (gm): 35.30 gm and 41.00 gm and 33.70 gm and 39.60 gm and 34.50 gm
[5]; 0.001 M
  Percent Change v. Control, Roots: 159%
  Percent Change v. Control, Shoots: 18%
  Percent Change v. Control, Total: 74%
  Root/Shoot Ratio: 1.46
  Roots (gm), Average: 7.85 gm
  Shoots (gm), Average: 5.38 gm
  Total (gm), Average: 13.23 gm
[5]; 0.001 M, single sample (pot)
  Shoots (gm): 4.80 gm and 4.40 gm and 6.20 gm and 5.50 gm and 5.70 gm
  Total (gm): 8.60 gm and 12.40 gm and 16.20 gm and 14.70 gm and 12.60 gm and 14.90 gm
[5]; 0.01 M
  Percent Change v. Control, Roots: 49%
  Percent Change v. Control, Shoots: 15%
  Percent Change v. Control, Total: 28%
  Root/Shoot Ratio: 0.86
  Roots (gm), Average: 4.50 gm
  Shoots (gm), Average: 5.25 gm
  Total (gm), Average: 9.75 gm
[5]; 0.01 M, single sample (pot)
  Shoots (gm): 4.00 gm and 6.00 gm and 4.90 gm and 7.20 gm and 4.80 gm and 4.60 gm
[5]; 0.05 M
  Percent Change v. Control, Roots: 67%
  Percent Change v. Control, Shoots: 29%
  Percent Change v. Control, Total: 44%
  Root/Shoot Ratio: 0.86
  Roots (gm), Average: 5.07 gm
  Shoots (gm), Average: 5.90 gm
  Total (gm), Average: 10.97 gm
[5]; 0.05 M, single sample (pot)
  Roots (gm): 4.30 gm and 6.00 gm and 4.20 gm and 4.60 gm and 4.70 gm and 6.60 gm
  Shoots (gm): 4.70 gm and 5.00 gm and 6.40 gm and 5.40 gm and 6.90 gm and 7.00 gm
  Total (gm): 9.00 gm and 11.00 gm and 10.60 gm and 10.80 gm and 11.60 gm and 13.60 gm
[6]; 0.001 M
  Percent Change v. Control, Roots: 37%
  Percent Change v. Control, Shoots: 42%
  Percent Change v. Control, Total: 39%
  Root/Shoot Ratio: 1.79
  Roots (gm), Average: 0.61 gm
  Shoots (gm), Average: 0.34 gm
  Total (gm), Average: 0.95 gm
[6]; 0.01 M
  Percent Change v. Control, Roots: 13%
  Percent Change v. Control, Shoots: 29%
  Percent Change v. Control, Total: 19%
  Root/Shoot Ratio: 1.67
  Roots (gm), Average: 0.51 gm
  Shoots (gm), Average: 0.31 gm
  Total (gm), Average: 0.82 gm
[6]; 0.05 M
  Percent Change v. Control, Roots: 82%
  Percent Change v. Control, Shoots: 63%
  Percent Change v. Control, Total: 76%
  Root/Shoot Ratio: 2.13
  Roots (gm), Average: 0.82 gm
  Shoots (gm), Average: 0.39 gm
  Total (gm), Average: 1.21 gm
[7]; 0.001 M
  Percent Change v. Control, Roots: 89%
  Percent Change v. Control, Shoots: 29%
  Percent Change v. Control, Total: 52%
  Root/Shoot Ratio: 0.93
  Roots (gm), Average: 9.18 gm
  Shoots (gm), Average: 9.87 gm
  Total (gm), Average: 19.05 gm
[7]; 0.001 M, single sample (pot)
  Roots (gm): 7.30 gm and 8.00 gm and 11.30 gm and 12.30 gm and 7.80 gm and 8.40 gm
  Shoots (gm): 10.20 gm and 10.30 gm and 9.30 gm and 10.90 gm and 8.70 gm and 9.80 gm
  Total (gm): 17.50 gm and 18.30 gm and 20.60 gm and 23.20 gm and 16.50 gm and 18.20 gm
[7]; 0.01 M
  Percent Change v. Control, Roots: 54%
  Percent Change v. Control, Shoots: 16%
  Percent Change v. Control, Total: 31%
  Root/Shoot Ratio: 0.84
  Roots (gm), Average: 7.48 gm
  Shoots (gm), Average: 8.86 gm
  Total (gm), Average: 16.34 gm
[7]; 0.01 M, single sample (pot)
  Shoots (gm): 11.20 gm and 6.00 gm and 8.30 gm and 9.90 gm and 8.90 gm
